Here are results for 21 molecules from US20210038607A1, “OXADIAZOLYLTHIOPHENE DERIVATIVES USEFUL AS HISTONE DEACETYLASE INHIBITORS” (Karus Therapeutics Limited, priority 2018, published 2021).

Assay [1] relates to acetylated α-tubulin in A549 lung adenocarcinoma cells. The assay is described as follows: Acetylated α-tubulin in-cell western (ICW) assay. Format: cell-based. The note with it: Homo sapiens, 16 h exposure, relative to 40 μM scriptaid positive control, read-out: EC50 Ac-α-tubulin, A549 cells. How it is done: (§1) Acetylated α-Tubulin and Histone H3 in-Cell Western (ICW) Assays
(§2) A549 cells were maintained in DMEM (Life Technologies)+10% FBS+2 mM glutamine & penicillin (10 μg/mL) and streptomycin ([…]. 10,000 A549 cells per well were plated into 96 well tissue culture plates (Corning) and incubated at 37° C. overnight in a humidified atmosphere containing 5% CO2 prior to addition of compounds. Compounds (dissolved in 100% DMSO) were diluted into cell culture media at 2× final assay concentration. 2× compound or DMSO (negative control) were added to cells (final DMSO concentration 0.4%). Untreated control wells received media. For acetylated α-tubulin assays, 40 μM scriptaid was used as a positive control. For acetylated histone H3 assays, 40 μM Trichostatin A (TSA) was used as a positive control. Cells were exposed to compound at 37° C. in a humidified atmosphere containing 5% CO2 for 16 h.
(§3) Measurement of the impact of compounds on levels of acetylated α-tubulin and histone H3 was performed using specific antibodies and near-infrared immunofluorescent dyes. Briefly, media was removed from wells of assay plates. Cells were washed once with PBS and fixed in 3.7% formaldehyde PBS solution at room temperature for 20 min. Cells were then permeabilised by washing 5 times in 0.1% triton-X-100 PBS at room temperature with gentle agitation for 5 min per wash. Non-specific antibody staining was blocked by the addition of Odyssey blocking buffer (Li-Cor) for 1.5 h at room temperature with gentle agitation. Cells were then incubated with primary antibody (mouse monoclonal anti-acetylated α-tubulin (clone 6-11B-1), Sigma or rabbit polyclonal anti-acetylated histone H3, Millipore) diluted in Odyssey blocking buffer at 4° C. with gentle shaking overnight (no antibody control and secondary antibody only wells were incubated with Odyssey blocking buffer only). Cells were washed five times with 0.1% tween PBS and labelled with secondary antibody (IR dye 800CW-conjugated goat anti mouse IgG or -goat anti rabbit IgG, Li-Cor) and cell stains Sapphire700 (Li-Cor) and Draq5 (Biostatus) diluted in Odyssey blocking buffer at room temperature in the dark with gentle shaking for 1 h (no antibody control wells were incubated with Odyssey blocking buffer only and secondary antibody only with diluted secondary antibody but no cell stains). Cells were washed with 0.1% Tween PBS five times and scanned using a Li-Cor Odyssey SA plate reader in 700 and 800 nm channels. Acetylated α-tubulin or histone H3 signal was normalised to cell number using the cell stain signal. Percentage increase in acetylated α-tubulin or histone H3 after compound treatment over the mean of DMSO treated controls, relative to scriptaid and TSA positive controls, respectively was calculated. EC50 values were calculated using GraphPad Prism software and nonlinear regression with 0% bottom and 100% top constraints.

The test system of assay [2] is acetylated histone H3 in A549 lung adenocarcinoma cells. Put plainly: Acetylated histone H3 in-cell western (ICW) assay. Format: cell-based. The note with it: Homo sapiens, 16 h exposure, relative to 40 μM Trichostatin A positive control, read-out: EC50 Ac-histone H3, A549 cells. As to the method: as §1, §2, §3

What is called EC50 is the concentration at which the effect is half-maximal.

With `CN(C)C1CN(C(=O)c2cnnc(N(Cc3ccc(-c4noc(C(F)(F)F)n4)s3)c3cnccn3)c2)C1` [Example FX, 5-[3-(Dimethylamino)azetidine-1-carbonyl]-N-(pyrazin-2-yl)-N-({5-[5-(trifluoromethyl)-1,2,4-oxadiazol-3-yl]thiophen-2-yl}methyl)pyridazin-3-amine], the results for the EC50 in assay [1] and in assay [2] were not above 1 µM and not below 10 µM, respectively.

For `CN1CCN(C(=O)c2cnnc(N(Cc3ccc(-c4noc(C(F)(F)F)n4)s3)c3cnccn3)c2)CC1` [Example EC, 5-(4-Methylpiperazine-1-carbonyl)-N-(pyrazin-2-yl)-N-({5-[5-(trifluoromethyl)-1,2,4-oxadiazol-3-yl]thiophen-2-yl}methyl)pyridazin-3-amine], the EC50 in assay [1] was not above 1 µM; in assay [2] it was not below 10 µM.

As for `COc1cncc(N(Cc2ccc(-c3noc(C(F)(F)F)n3)s2)c2cc(C(F)(F)F)cnn2)n1` [Example EN, N-(6-Methoxypyrazin-2-yl)-5-(trifluoromethyl)-N-({5-[5-(trifluoromethyl)-1,2,4-oxadiazol-3-yl]thiophen-2-yl}methyl)pyridazin-3-amine], the figures for the EC50 in assay [1] and in assay [2] were not above 1 µM and not below 10 µM, respectively.

In the case of `NC(=O)c1cnnc(N(Cc2ccc(-c3noc(C(F)(F)F)n3)s2)c2cnccn2)c1` [Example DX, 6-[(Pyrazin-2-yl)({5-[5-(trifluoromethyl)-1,2,4-oxadiazol-3-yl]thiophen-2-yl}methyl)amino]pyridazine-4-carboxamide], the EC50 in assay [1] was not above 1 µM; in assay [2] it was not below 10 µM.

`O=C(c1ccc(N(Cc2ccc(-c3noc(C(F)(F)F)n3)s2)c2cnccn2)nn1)N1CCC1` [Example FF, 6-(Azetidine-1-carbonyl)-N-(pyrazin-2-yl)-N-({5-[5-(trifluoromethyl)-1,2,4-oxadiazol-3-yl]thiophen-2-yl}methyl)pyridazin-3-amine]: the EC50 is not above 1 µM in assay [1] and not below 10 µM in assay [2].

Consider `O=C(O)c1cnnc(N(Cc2ccc(-c3noc(C(F)(F)F)n3)s2)c2cnccn2)c1` [Example DW, 6-[(Pyrazin-2-yl)({5-[5-(trifluoromethyl)-1,2,4-oxadiazol-3-yl]thiophen-2-yl}methyl)amino]pyridazine-4-carboxylic acid], for which the EC50 in assay [1] and in assay [2] was not below 10 µM in each case.

Consider `FC(F)(F)c1nc(-c2ccc(CN(c3cnccn3)c3cc(CN4CCOCC4)ccn3)s2)no1` [Example GI, N-{4-[(Morpholin-4-yl)methyl]pyridin-2-yl}-N-({5-[5-(trifluoromethyl)-1,2,4-oxadiazol-3-yl]thiophen-2-yl}methyl)pyrazin-2-amine], for which the EC50 is not above 1 µM in assay [1] and not below 10 µM in assay [2].

`FC(F)(F)c1nc(-c2ccc(CN(c3cnccn3)c3cnccn3)s2)no1` [Example BA, N-(Pyrazin-2-yl)-N-({5-[5-(trifluoromethyl)-1,2,4-oxadiazol-3-yl]thiophen-2-yl}methyl)pyrazin-2-amine]: the EC50 is not above 1 µM in assay [1] and not below 10 µM in assay [2].

Take `O=C(c1cnnc(N(Cc2ccc(-c3noc(C(F)(F)F)n3)s2)c2cnccn2)c1)N1CC[S+]([O-])CC1` [Example FU, 4-{6-[(Pyrazin-2-yl)({5-[5-(trifluoromethyl)-1,2,4-oxadiazol-3-yl]thiophen-2-yl}methyl)amino]pyridazine-4-carbonyl}-1lambda4-thiomorpholin-1-one]: the EC50 in assay [1] was not above 1 µM; in assay [2] it was not below 10 µM.

Take `FC(F)(F)c1cnnc(N(Cc2ccc(-c3noc(C(F)(F)F)n3)s2)c2cc(C(F)(F)F)cnn2)c1` [Example EU, 5-(Trifluoromethyl)-N-({5-[5-(trifluoromethyl)-1,2,4-oxadiazol-3-yl]thiophen-2-yl}methyl)-N-[5-(trifluoromethyl)pyridazin-3-yl]pyridazin-3-amine]: the EC50 in assay [1] is not above 1 µM; in assay [2], not below 10 µM.

With `O=C(c1ccc(N(Cc2ccc(-c3noc(C(F)(F)F)n3)s2)c2cnccn2)nn1)N1CCOCC1` [Example DS, 6-(Morpholine-4-carbonyl)-N-(pyrazin-2-yl)-N-({5-[5-(trifluoromethyl)-1,2,4-oxadiazol-3-yl]thiophen-2-yl}methyl)pyridazin-3-amine], the EC50 in assay [1] is not above 1 µM; in assay [2] it was not below 10 µM.

As to `O=C(c1cnnc(N(Cc2ccc(-c3noc(C(F)(F)F)n3)s2)c2cnccn2)c1)N1C[C@@H]2C[C@H]1CO2` [Example FV, 5-[(1S,4S)-2-Oxa-5-azabicyclo[2.2.1]heptane-5-carbonyl]-N-(pyrazin-2-yl)-N-({5-[5-(trifluoromethyl)-1,2,4-oxadiazol-3-yl]thiophen-2-yl}methyl)pyridazin-3-amine], the EC50 in assay [1] was not above 1 µM; in assay [2], not below 10 µM.

As to `FC(F)(F)c1cnnc(N(Cc2ccc(-c3noc(C(F)(F)F)n3)s2)c2cccnn2)c1` [Example ER, N-(Pyridazin-3-yl)-5-(trifluoromethyl)-N-({5-[5-(trifluoromethyl)-1,2,4-oxadiazol-3-yl]thiophen-2-yl}methyl)pyridazin-3-amine], the EC50 in assay [1] and in assay [2] was not below 10 µM each time.

`O=C(c1cnnc(N(Cc2ccc(-c3noc(C(F)(F)F)n3)s2)c2cnccn2)c1)N1CC(C(F)F)C1` [Example GK, 5-[3-(Difluoromethyl)azetidine-1-carbonyl]-N-(pyrazin-2-yl)-N-({5-[5-(trifluoromethyl)-1,2,4-oxadiazol-3-yl]thiophen-2-yl}methyl)pyridazin-3-amine]: the EC50 in assay [1] was not above 1 µM; in assay [2] it was not below 10 µM.

For `NC(=O)c1ccc(N(Cc2ccc(-c3noc(C(F)(F)F)n3)s2)c2cnccn2)nn1` [Example DQ, 6-[(Pyrazin-2-yl)({5-[5-(trifluoromethyl)-1,2,4-oxadiazol-3-yl]thiophen-2-yl}methyl)amino]pyridazine-3-carboxamide], the EC50 is not above 1 µM in assay [1] and not below 10 µM in assay [2].

On to `O=C(c1cnnc(N(Cc2ccc(-c3noc(C(F)(F)F)n3)s2)c2cnccn2)c1)N1CC(C(F)(F)F)C1` [Example GJ, N-(Pyrazin-2-yl)-N-({5-[5-(trifluoromethyl)-1,2,4-oxadiazol-3-yl]thiophen-2-yl}methyl)-5-[3-(trifluoromethyl)azetidine-1-carbonyl]pyridazin-3-amine], for which the EC50 in assay [1] was not above 1 µM; in assay [2], not below 10 µM.

In the case of `O=C(c1ccc(N(Cc2ccc(-c3noc(C(F)(F)F)n3)s2)c2cnccn2)nn1)N1CCCCC1` [Example FG, 6-(Piperidine-1-carbonyl)-N-(pyrazin-2-yl)-N-({5-[5-(trifluoromethyl)-1,2,4-oxadiazol-3-yl]thiophen-2-yl}methyl)pyridazin-3-amine], the EC50 in assay [1] was not above 1 µM; in assay [2] it was not below 10 µM.

As to `O=C(c1ccc(N(Cc2ccc(-c3noc(C(F)(F)F)n3)s2)c2cnccn2)nn1)N1CCCC1` [Example FI, N-(Pyrazin-2-yl)-6-(pyrrolidine-1-carbonyl)-N-({5-[5-(trifluoromethyl)-1,2,4-oxadiazol-3-yl]thiophen-2-yl}methyl)pyridazin-3-amine], the EC50 is not above 1 µM in assay [1] and not below 10 µM in assay [2].

For `O=C(c1ccc(N(Cc2ccc(-c3noc(C(F)(F)F)n3)s2)c2cnccn2)nn1)N1C[C@@H]2C[C@H]1CO2` [Example FE, 6-[(1S,4S)-2-Oxa-5-azabicyclo[2.2.1]heptane-5-carbonyl]-N-(pyrazin-2-yl)-N-({5-[5-(trifluoromethyl)-1,2,4-oxadiazol-3-yl]thiophen-2-yl}methyl)pyridazin-3-amine], the EC50 is 1 to 10 µM in assay [1] and not below 10 µM in assay [2].

As to `O=C(c1cnnc(N(Cc2ccc(-c3noc(C(F)(F)F)n3)s2)c2cnccn2)c1)N1CCC12COC2` [Example GF, 5-{6-Oxa-1-azaspiro[3.3]heptane-1-carbonyl}-N-(pyrazin-2-yl)-N-({5-[5-(trifluoromethyl)-1,2,4-oxadiazol-3-yl]thiophen-2-yl}methyl)pyridazin-3-amine], the EC50 was not above 1 µM in assay [1] and not below 10 µM in assay [2].

As to `FC(F)(F)c1nc(-c2ccc(CN(c3cnccn3)c3ccc(CN4CCOCC4)nn3)s2)no1` [Example FN, 6-[(Morpholin-4-yl)methyl]-N-(pyrazin-2-yl)-N-({5-[5-(trifluoromethyl)-1,2,4-oxadiazol-3-yl]thiophen-2-yl}methyl)pyridazin-3-amine], the EC50 is not above 1 µM in assay [1] and not below 10 µM in assay [2].
